Measurements from patent publication US11344601B2, “Tumor microenvironment-related target TAK1 and application thereof in inhibition of tumor” (Shanghai Institutes for Biological Sciences, Chinese …, priority 2017, dated 2022).

What was measured:
[1] = tested on: prostate-derived stromal cell line PSC27 and epithelial cancer cell line PC3 xenograft tumors; experiment: Preclinical chemotherapy trial, subcutaneous PC3/PSC27 tissue-recombinant tumors, terminal tumor volume; type: in vivo, ICR-SCID mice
Experimental: All experimental mouse experiments were carried out in strict accordance with the relevant regulations of the Institutional animal care and use committee (IACUC) of the shanghai Institute of Life Sciences of the Chinese Academy of Sciences. ICR-SCID mice at an age of about 6 weeks (about 25 g in body weight) were used in this patent-related animal experiment. Stromal cells PSC27 and epithelial cells were mixed at a ratio of 1:4, with each implant containing 1.25×10^6 cells for tissue recombination. The transplant tumor was implanted into mice subcutaneously, and the animals were euthanized at the end of Week 8 after transplantation. The tumor volume was calculated according to the following formula: V=(π/6)×((l+w)/2)^3 (V, volume; l, length; w, width). Similarly, lung and breast cancer xenograft tumors were formed by tissue recombination with A549 (non-small cell lung cancer cell line) and W138 (lung fibroblast line), MDA-MB-231 (triple negative breast cancer cell line) and HBF1203 (breast fibroblast line), respectively.
In the preclinical chemotherapy trial, mice subcutaneously transplanted with tumors were fed standard experimental diet. After 2 weeks, the chemotherapeutics mitoxantrone (dose of 0.2 mg/kg) and/or SASP inhibitors (500 μl, dose of 10 mg/kg, RAD001, SB203580 and 5Z-7 were purchased from Tocris; LYTAK, purchased from Lilly Co ((Indianapolis, Ind.), 5 mg/kg) were administrated intraperitoneally. The timepoint was the first day of Week 3, 5, 7, and the whole course of treatment was composed of three cycles of administration, each cycle lasted for 2 weeks. After the course of treatment, mouse […] was collected for tumor measurement and histological analysis. Each mouse received cumulatively 0.6 mg mitoxantrone/kg body weight and 30 mg SASP inhibitor/kg body (15 mg/kg body weight for LYTAK1). Mice xenografted with lung cancer and breast cancer tumor received bleomycin (totally 0.3 mg/kg) and doxorubicin (totally 0.2 mg/kg), respectively. The timepoints and frequency were same as the administration of mitoxantrone. The chemotherapeutic trial was performed until the end of Week 8, and the mice were dissected immediately after death. The transplant tumors were collected and used for analysis in a pathological system.
In order to simulate clinical conditions as much as possible, the present inventor inoculated the subcutaneous site of immunodeficient mice with an admixture of prostate-derived stromal cell line PSC27 and epithelial cancer cell line PC3. The mice subsequently underwent a regimen of 8-week preclinical chemotherapy, which included three single- or double-drug treatments based on a series of pre-experimental data (FIGS. 64 and 65). In the absence of stromal cells, PC3 cells were still able to form tumors under screening pressure caused by chemotherapeutics, though their volumes were smaller than that generated in the case of concurrent inoculation of stromal cells and cancer cells. Such difference also objectively confirmed the tumor-promoting effect of the microenvironment (FIG. 66).

SASP effectors = experiment: Genome-wide expression microarray of SASP effectors in PSC27 cells; type: cell-based, human; settings: bleomycin in combination with 5Z-7 vs bleomycin alone
Experimental: FIG. 34. After simultaneous treatment of PSC27 cells with bleomycin and/or 5Z-7, SB203580 (SB) and RAD001, total RNA was analyzed by microarray for expression-spectrum.
c. Experimental Treatment In Vitro • 100 nM docetaxel (DTX), 100 nM paclitaxel (PTX), 200 nM vincristine (VCR), 50 μg/ml bleomycin (BLEO), 1 μM mitoxantrone (MIT), or 10 Gy ^137CS ionizating radiation (γ-radiation at 743 rad/min, RAD) was added to the culture medium when PSC27 cells grown to 80% (PSC27-Pre) to produce cell damage. After drug treatment for 6 hours, the cells were simply washed by PBS for 3 times and kept in the culture medium for 7 to 10 days, followed by subsequent experiments. 2. Plasmid Preparation and Lentiviral Transfection • Full-length human IKKα and Flag were cloned as a fusion protein between the restriction sites BamHI and XbaI in the expression vector pCR3.1. Full-length human mTOR and GST were cloned as a fusion protein between a pair of NotI restriction sites in the expression vector pcDNA3. […] FV1000 laser scanning confocal microscopy (Olympus) was used to obtain cellular confocal fluorescence images to determine the extent of DNA damage. • Antibody anti-TAK1 used for histological IHC staining in clinical prostate, non-small cell lung cancer patients and breast cancer patients, was purchased from Proteintech, idib. […]

COc1cc(O)c2c(c1)/C=C/C[C@H](O)[C@H](O)C(=O)/C=C\C[C@H](C)OC2=O [5Z-7, 5z-7-oxozeaenol]
effect on tumor growth ([1]; TAK1 inhibitor alone): does not appear to alter tumor growth trends
further decrease in terminal tumor volume ([1]; inhibitor combined with mitoxantrone (MIT) vs mitoxantrone alone (group 8 vs group 6), end of Week 8): 60%
expression of SASP effectors (SASP effectors): significantly inhibited
